Assay results from patent US5476851A, “Pyrazolo[3,4-g]quinoxaline compounds which inhibit PDGF receptor protein tyrosine kinase” (Rhone-Poulenc Rorer Pharmaceuticals, Inc., priority 1994, dated 1995).

target: T1, PDGF-R (Mus musculus, UniProt P05622); test: Inhibition of PDGF-R cell-free autophosphorylation; type: biochemical; conditions: lysate from NIH 3T3 cells, stimulated with 10 ng/ml PDGF, [γ-^32 P]ATP, 4° C., immunoprecipitation
T1 construct: endogenous in cells; host or cells: NIH 3T3 cells (lysate, immunoprecipitate)
T1 sequence (P05622 32-1098): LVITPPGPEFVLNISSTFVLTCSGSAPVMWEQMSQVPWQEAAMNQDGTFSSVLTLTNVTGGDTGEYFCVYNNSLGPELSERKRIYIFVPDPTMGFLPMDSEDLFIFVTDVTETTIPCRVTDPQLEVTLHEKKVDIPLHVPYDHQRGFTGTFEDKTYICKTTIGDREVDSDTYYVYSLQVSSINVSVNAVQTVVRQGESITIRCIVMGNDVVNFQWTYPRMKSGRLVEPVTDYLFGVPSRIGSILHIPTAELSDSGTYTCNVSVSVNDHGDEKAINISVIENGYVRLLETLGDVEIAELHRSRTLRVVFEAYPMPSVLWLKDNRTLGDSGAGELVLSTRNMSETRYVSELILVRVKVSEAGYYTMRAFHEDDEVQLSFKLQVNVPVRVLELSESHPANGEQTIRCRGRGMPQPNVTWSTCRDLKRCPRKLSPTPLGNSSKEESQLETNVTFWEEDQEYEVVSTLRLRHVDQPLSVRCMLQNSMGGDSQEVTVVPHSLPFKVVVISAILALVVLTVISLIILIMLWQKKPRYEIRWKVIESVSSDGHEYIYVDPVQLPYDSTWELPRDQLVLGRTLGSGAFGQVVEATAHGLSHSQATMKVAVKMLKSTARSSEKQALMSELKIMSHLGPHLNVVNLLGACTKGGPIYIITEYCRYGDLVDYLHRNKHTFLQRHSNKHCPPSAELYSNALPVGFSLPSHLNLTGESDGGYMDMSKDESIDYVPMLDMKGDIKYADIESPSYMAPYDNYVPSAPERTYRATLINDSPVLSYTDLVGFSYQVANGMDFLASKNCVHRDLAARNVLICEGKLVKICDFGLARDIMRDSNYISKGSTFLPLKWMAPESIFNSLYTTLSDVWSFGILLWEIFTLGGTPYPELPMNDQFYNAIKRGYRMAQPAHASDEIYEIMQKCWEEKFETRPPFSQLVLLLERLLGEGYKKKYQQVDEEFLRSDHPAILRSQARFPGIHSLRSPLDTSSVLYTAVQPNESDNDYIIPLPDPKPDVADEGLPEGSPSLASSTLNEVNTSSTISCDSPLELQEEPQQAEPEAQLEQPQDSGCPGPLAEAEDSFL
Method: In order to test the present compounds for inhibition, the following procedure using PDGF stimulation is used. "IC50," as used below refers to the concentration of inhibitor ([…]) at which the rate of autophosphorylation is halved, compared with media containing no inhibitor.
Inhibition of PDGF-R Autophosphorylation
Lysate from NIH 3T3 cells was diluted one-third in Triton-free buffer and stimulated with 10 ng/ml PDGF for 30 minutes at 4° C. The equivalent of 1/15 of a 175. cm^2 plate of lysate was used per sample. The stimulated lysate was then immunoprecipitated with rabbit polyclonal anti-PDGF-receptor antibodies raised against a synthetic peptide from the COOH-terminal region (amino acids 1094-1106) or the human PDGF-receptor β-subunit and added to increasing concentrations of test compound of the present invention. After 10 minutes at 4° C., 10 μCi of [γ-^32 P]ATP were added and further incubated for 10 minutes at 4° C. Samples were separated by SDS-PAGE on 6% gels.
The following tables show examples of representative compounds of this invention and their test results as determined by the above inhibition of PDGF-R cell-free autophosphorylation procedure.

Structure (SMILES) | IC50 [µM]
COc1ccc(-c2cnc3cc4cn[nH]c4cc3n2)cc1F | < 0.02
COc1ccc(-c2cnc3cc4cnn(C)c4cc3n2)cc1F | < 2
COc1ccc(-c2cnc3cc4cn(C)nc4cc3n2)cc1F | < 0.02

Continued, values first:

IC50 [µM] | Structure (SMILES)
2 to 10 | Clc1ccc(-c2cnc3cc4cn[nH]c4cc3n2)s1
0.3 | Cn1cc2cc3ncc(-c4ccc(Cl)s4)nc3cc2n1
